# According to paper PMC6928678, “Simplified Head-to-Tail Cyclic Polypeptides as Biomaterial-Associated Antimicrobials with Endotoxin Neutralizing and Anti-Inflammatory Capabilities” (International Journal of Molecular Sciences, 2019):
# Read-outs that look alike come from different tables or passages of the source. Where a SMILES comes first, the peptide text is derived from it. Where no end group is shown, it is not given here. [ ]: non-standard residue; d: D form.
# Experiments:
# [1] = system: gram-negative strains tested; assay: Geometric mean of MICs, gram-negative strains; assay type: cell-based; details: 5 gram-negative strains; >128 apparently counted as 256; read-out: nGM (–), geometric mean of the MICs against gram-negative strains
# Experimental: (§1) Briefly, the bacteria were incubated overnight at 37 °C with constant shaking at 220 rpm, then were transferred to new MH broth (MHB) medium until they reached the logarithmic phase of growth. The bacteria were then diluted to 10^5 (CFU)/mL in MHB. The peptides were dissolved and diluted in 0.01% acetic acid and 0.2% bovine serum albumin (BSA) at various concentrations (0.5–128 μM) in each well of sterile 96-well plates and incubated for 20 h at 37 °C. […] The test was repeated three times.
# S. epidermidis 12228 = assay: microbe, parasite or virus in culture; assay type: cell-based
# Experimental: (§2) The test strains, including Gram-negative E. coli ATCC25922, E. coli ATCC 1005, S. typhimurium C7731, P. aeruginosa ATCC 27853, S. Typhimurium 14028, Gram-positive S. aureus ATCC29213, S. aureus ATCC 25923, S. epidermidis ATCC 12228 and S. aureus 43300, were obtained from the School of Veterinary Medicine, Northeast Agricultural University (Harbin, China).
# as §1
# S. typhimurium 7731 = assay: microbe, parasite or virus in culture; assay type: cell-based
# Experimental: as §2, §1
# P. aeruginosa 27853 = assay: microbe, parasite or virus in culture; assay type: cell-based
# Experimental: as §2, §1
# S. typhimurium 14028 = assay: microbe, parasite or virus in culture; assay type: cell-based
# Experimental: as §2, §1
# S. aureus 25923 = assay: microbe, parasite or virus in culture; assay type: cell-based, Staphylococcus aureus
# Experimental: as §2, §1
# S. aureus 29213 = assay: microbe, parasite or virus in culture; assay type: cell-based, Staphylococcus aureus
# Experimental: as §2, §1
# [2] = system: gram-positive strains tested; assay: organism not typed; assay type: cell-based
# Experimental: as §1
# MRSA43300 = assay: microbe, parasite or virus in culture; assay type: cell-based, Methicillin-resistant Staphylococcus aureus
# Experimental: as §2, §1
# [3] = system: all the 9 bacteria tested; assay: Geometric mean of MICs, all 9 bacteria; assay type: cell-based; details: for tGM, geometric mean of the MICs against all the 9 bacteria: all 9 bacteria tested; for GM MIC (range of Gram-negative and Gram-positive geometric means): Table 2
# Experimental: as §1
# [4] = system: Gram-positive and Gram-negative bacteria; assay: Antimicrobial assay (MIC), statement over all strains; assay type: cell-based; details: all strains tested
# Experimental: as §1
# E. coli UB 1005 = assay: microbe, parasite or virus in culture; assay type: cell-based, Escherichia coli
# Experimental: as §2, §1
# E. coli 25922 = assay: microbe, parasite or virus in culture; assay type: cell-based, Escherichia coli
# Experimental: as §2, §1
# [5] = system: human red blood cells (hRBCs); assay: Hemolysis assay; assay type: cell-based
# Experimental: Figure 2 (A) Hemolytic activity of the engineered peptides against human red blood cells (hRBCs). The hRBCs were incubated with equal amounts of the respective peptides dissolved in PBS for 1 h at 37 °C. (B) Cytotoxicity of the engineered peptides against RAW264.7. […] Data shown are three independent experiments.
# The hemolytic activity of the peptides is determined by measuring the amount of hemoglobin released during the lysis of human erythrocytes at different concentrations of AMPs. Briefly, fresh, healthy human red blood cells (hRBCs) were collected and then washed three times with phosphate-buffered saline (PBS) buffer (pH 7.2) and centrifuged at 1000× g for 5 min. Each 50 µL sample of hRBCs was incubated with 50 µL of the respective peptide dissolved in PBS in a well of a 96-well plate for 1 h at 37 °C. After incubation, the samples were centrifuged at 1000× g for 5 min and the supernatants (50 μL) were transferred to a new 96-well microplate. The release of hemoglobin was measured by monitoring the OD at 570 nm (Tecan, Salzburg, Austria). Negative (hRBCs without AMP treatment) and positive (hRBCs treated with 0.1% TritonX-100) controls were used. The concentration of peptide that caused 5% hemolysis was considered the minimal hemolysis concentration (MHC). The test was repeated three times. The percent hemolysis was calculated using the following formula:(2) Percent hemolysis=A−A0/At−A0× 100% A0 and At represent 0% and 100% hemolysis as measured in 10 mM PBS and 0.2% Triton X-100, respectively.
Compound,MIC [1] [µM],"MIC (S. epidermidis 12228; 12228, 20 h) [µM]","MIC (S. typhimurium 7731; 7731, 20 h) [µM]","MIC (P. aeruginosa 27853; 27853, 20 h, read-out: MIC) [µM]","MIC (S. typhimurium 14028; 14028, 20 h) [µM]","MIC (S. aureus 25923; 25923, 20 h) [µM]","MIC (S. aureus 29213; 29213, 20 h) [µM]","pGM (+), geometric mean of the MICs against gram-positive strains ([2]; 20 h) [µM]",MIC (MRSA43300; 20 h) [µM],"tGM, geometric mean of the MICs against all the 9 bacteria [3] [µM]","MIC (E. coli UB 1005; UB 1005, 20 h) [µM]","MIC (E. coli 25922; 25922, 20 h) [µM]","MHC5, minimum hemolytic concentration that induced ≥5% hemolysis ([5]; red cells of human, 1 h) [µM]",other results
CC[C@H](C)[C@H](N)C(=O)N[C@@H](CCCNC(=N)N)C(=O)N1CCC[C@@H]1C(=O)N[C@H](C(=O)N[C@@H](CCCNC(=N)N)C(=O)N1CCC[C@@H]1C(=O)O)[C@@H](C)CC [DIR1] (H-IR[dP]IR[dP]-OH),256,>128,>128,>128,>128,>128,>128,256,>128,256,>128,>128,>128,MIC in the presence of Gram-positive and Gram-negative bacteria [4]: greater than 128 μM
CC[C@H](C)[C@H](N)C(=O)N[C@@H](CCCNC(=N)N)C(=O)N[C@H](C(=O)N[C@@H](CCCNC(=N)N)C(=O)N1CCC[C@@H]1C(=O)N[C@H](C(=O)N[C@@H](CCCNC(=N)N)C(=O)N[C@H](C(=O)N[C@@H](CCCNC(=N)N)C(=O)N1CCC[C@@H]1C(=O)O)[C@@H](C)CC)[C@@H](C)CC)[C@@H](C)CC [DIR2] (H-IRIR[dP]IRIR[dP]-OH),194.0,>128,>128,>128,>128,>128,>128,256,>128,219.5,128,128,>128,
IRIRIRPIRIRIRP [IR3],12.1,>128,16,8,16,64,64,90.5,64,,8,16,>128,
CC[C@H](C)[C@H](N)C(=O)N[C@@H](CCCNC(=N)N)C(=O)N[C@H](C(=O)N[C@@H](CCCNC(=N)N)C(=O)N[C@H](C(=O)N[C@@H](CCCNC(=N)N)C(=O)N1CCC[C@@H]1C(=O)N[C@H](C(=O)N[C@@H](CCCNC(=N)N)C(=O)N[C@H](C(=O)N[C@@H](CCCNC(=N)N)C(=O)N[C@H](C(=O)N[C@@H](CCCNC(=N)N)C(=O)N1CCC[C@@H]1C(=O)O)[C@@H](C)CC)[C@@H](C)CC)[C@@H](C)CC)[C@@H](C)CC)[C@@H](C)CC [DIR3] (H-IRIRIR[dP]IRIRIR[dP]-OH),,128,4,8,16,64,8,45.3,64,,4,4,>128,
"O=C(N[C@H](CO)[C@H](O)c1ccc([N+](=O)[O-])cc1)C(Cl)Cl [CH, Chloramphenicol, reference compound]",18.4,,,,,,,,,,,,,"MIC (S. epidermidis 12228; Staphylococcus epidermidis, S. epidermidis 12228, MHB, 10^5 CFU/mL, 20 h 37 °C, repeated three times): 32 µM; MIC (S. typhimurium 7731; Salmonella enterica, S. typhimurium 7731, MHB, 10^5 CFU/mL, 20 h 37 °C, repeated three times): 8 µM; MIC (P. aeruginosa 27853; Pseudomonas aeruginosa, 27853, 20 h): > 128 µM; MIC (S. typhimurium 14028; Salmonella enterica, S. typhimurium 14028, MHB, 10^5 CFU/mL, 20 h 37 °C, repeated three times): 16 µM; MIC (S. aureus 25923; Staphylococcus aureus, S. aureus 25923, MHB, 10^5 CFU/mL, 20 h 37 °C, repeated three times): 32 µM; MIC (S. aureus 29213; Staphylococcus aureus, S. aureus 29213, MHB, 10^5 CFU/mL, 20 h 37 °C, repeated three times): 8 µM; MIC ([2]; read-out: pGM (+), geometric mean of the MICs against gram-positive strains): 22.6 µM; MIC (MRSA43300; Staphylococcus aureus, MRSA43300, MHB, 10^5 CFU/mL, 20 h 37 °C, repeated three times): 32 µM; GM MIC (range of Gram-negative and Gram-positive geometric means) [3]: 18.4 to 22.6 µM; MIC ([3]; read-out: tGM, geometric mean of the MICs against all the 9 bacteria): 20.2 µM; MIC (E. coli UB 1005; Escherichia coli, UB1005, E. coli UB 1005, MHB, 10^5 CFU/mL, 20 h 37 °C, repeated three times): 4 µM; MIC (E. coli 25922; Escherichia coli, E. coli 25922, MHB, 10^5 CFU/mL, 0.5–128 μM peptide, 20 h 37 °C, OD 492 nm, repeated three times): 16 µM; MHC5, minimum hemolytic concentration that induced ≥5% hemolysis ([5]; human red blood cells, PBS, 1 h at 37 °C, OD 570 nm, repeated three times): >128 µM"
IRIRPIRIRP [IR2],256,>128,>128,>128,>128,>128,>128,256,>128,256,>128,>128,>128,
"Colistin Sulfate [CS, reference compound]",0.8,,,,,,,,,5.9,,,,"MIC (S. epidermidis 12228; S. epidermidis 12228, MHB, 10^5 CFU/mL, 20 h 37 °C, repeated three times): 128 µM; MIC (S. typhimurium 7731; S. typhimurium 7731, MHB, 10^5 CFU/mL, 20 h 37 °C, repeated three times): 0.5 µM; MIC (P. aeruginosa 27853; P. aeruginosa 27853, MHB, 10^5 CFU/mL, 20 h 37 °C, repeated three times, read-out: MIC): 0.5 µM; MIC (S. typhimurium 14028; S. typhimurium 14028, MHB, 10^5 CFU/mL, 20 h 37 °C, repeated three times): 4 µM; MIC (S. aureus 25923; S. aureus 25923, MHB, 10^5 CFU/mL, 20 h 37 °C, repeated three times): 64 µM; MIC (S. aureus 29213; S. aureus 29213, MHB, 10^5 CFU/mL, 20 h 37 °C, repeated three times): 64 µM; pGM (+), geometric mean of the MICs against gram-positive strains ([2]; 4 gram-positive strains, >128 apparently counted as 256): 76.1 µM; MIC (MRSA43300; MRSA43300, MHB, 10^5 CFU/mL, 20 h 37 °C, repeated three times): 64 µM; GM MIC (range of Gram-negative and Gram-positive geometric means) [3]: 0.8 to 76.1 µM; MIC (E. coli UB 1005; E. coli UB 1005, MHB, 10^5 CFU/mL, 20 h 37 °C, repeated three times): 0.5 µM; MIC (E. coli 25922; E. coli 25922, MHB, 10^5 CFU/mL, 0.5–128 μM peptide, 20 h 37 °C, OD 492 nm, repeated three times): 0.5 µM"
